Key:
Test in all cases: relative viability (nuclei count vs DMSO), 5 days (fraction); higher = more cells survive
[1] = compound: CN(c1ncccc1CNc1nc(Nc2ccc3c(c2)CC(=O)N3)ncc1C(F)(F)F)S(C)(=O)=O + CS(=O)(=O)CCNCc1ccc(-c2ccc3ncnc(Nc4ccc(OCc5cccc(F)c5)c(Cl)c4)c3c2)o1 [Lapatinib] (partner 2 µM)
Summary of the method: (§1)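 Values are medians from duplicate plates. Each reflects relative viability, defined as the nuclei count of treated wells over that of vehicle wells. Lung cancer cell lines in 1536-well plates were pin-tool dosed one day after seeding with one drug alone or with a fixed anchor-drug dose plus five library-drug doses (not always all listed) in √10 steps, then fixed, stained and imaged at 4× after 5 days.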

[2] = compound: CN(c1ncccc1CNc1nc(Nc2ccc3c(c2)CC(=O)N3)ncc1C(F)(F)F)S(C)(=O)=O + C[C@@H](Oc1cc(-c2cnn(C3CCNCC3)c2)cnc1N)c1c(Cl)ccc(F)c1Cl [Crizotinib] (partner 1 µM)
Summary of the method: as §1

[3] = compound: CN(c1ncccc1CNc1nc(Nc2ccc3c(c2)CC(=O)N3)ncc1C(F)(F)F)S(C)(=O)=O + Cc1cc(Nc2cc(N3CCN(C)CC3)nc(Sc3ccc(NC(=O)C4CC4)cc3)n2)n[nH]1 [Tozasertib] (partner 0.1 µM)
Summary of the method: as §1

[4] = compound: CN(c1ncccc1CNc1nc(Nc2ccc3c(c2)CC(=O)N3)ncc1C(F)(F)F)S(C)(=O)=O + Nc1ncn([C@H]2C[C@H](O)[C@@H](CO)O2)c(=O)n1 [Decitabine] (partner 2 µM)
Summary of the method: as §1

Cell Line | relative viability ([1]; first compound 0.01 µM) | relative viability ([1]; first compound 0.03162 µM) | relative viability ([1]; first compound 0.1 µM) | relative viability ([1]; first compound 0.3162 µM) | relative viability ([1]; first compound 1 µM) | relative viability ([2]; first compound 0.01 µM) | relative viability ([2]; first compound 0.03162 µM) | relative viability ([2]; first compound 0.1 µM) | relative viability ([2]; first compound 0.3162 µM) | relative viability ([2]; first compound 1 µM) | relative viability ([3]; first compound 0.01 µM) | relative viability ([3]; first compound 0.03162 µM) | relative viability ([3]; first compound 0.1 µM) | relative viability ([3]; first compound 0.3162 µM) | relative viability ([3]; first compound 1 µM) | relative viability ([4]; first compound 0.01 µM) | relative viability ([4]; first compound 0.03162 µM) | relative viability ([4]; first compound 0.1 µM) | relative viability ([4]; first compound 0.3162 µM) | relative viability ([4]; first compound 1 µM)
NCI-H2087 | 1.44 | 1.12 | 0.876 | 0.927 | 0.893 | 0.787 | 0.915 | 0.784 | 0.889 | 0.749 | 0.224 | 0.238 | 0.236 | 0.293 | 0.207 | 0.312 | 0.255 | 0.256 | 0.36 | 0.299
NCI-H2126 | 0.732 | 0.732 | 0.713 | 0.774 | 0.721 | 1.03 | 1.09 | 0.975 | 0.942 | 0.916 | 0.793 | 0.91 | 0.85 | 0.787 | 0.714 | 0.623 | 0.615 | 0.564 | 0.557 | 0.53
NCI-H2170 | 0.263 | 0.254 | 0.267 |  | 0.276 | 1.23 | 1.22 | 1.31 |  | 1.21 | 0.741 | 0.691 | 0.679 | 0.649 | 0.716 | 0.528 | 0.463 | 0.417 | 0.459 | 0.448
NCI-H2347 | 1.04 | 1.01 | 0.88 | 0.863 | 0.833 | 0.698 | 0.692 | 0.61 | 0.661 | 0.658 | 0.544 | 0.626 | 0.672 | 0.44 | 0.478 | 0.655 | 0.598 | 0.587 | 0.593 | 0.57
NCI-H2405 | 1.16 | 1.08 | 0.995 | 1.02 | 0.91 | 0.865 | 0.835 | 0.801 | 0.813 | 0.744 | 0.696 | 0.719 | 0.715 | 0.534 | 0.499 | 0.766 | 0.735 | 0.67 | 0.681 | 0.648
NCI-H3122 | 1.02 | 1.08 | 1.01 | 0.956 | 0.876 | 0.283 | 0.289 | 0.283 | 0.278 | 0.241 | 0.61 | 0.383 | 0.403 | 0.402 | 0.341 | 0.445 | 0.423 | 0.395 | 0.429 | 0.403
PC-3 [JPC-3] | 0.441 | 0.395 | 0.446 | 0.471 | 0.432 | 0.968 | 0.992 | 1.02 | 0.927 | 0.841 | 0.903 | 0.907 | 0.913 | 0.847 | 0.832 | 0.826 |  | 0.821 | 0.884 | 0.834
